For test [1], the target named is PIM1 (Homo sapiens (Human), UniProt P11309). The test is described as follows: biochemical. It is filed as biochemical. To be noted: 10 μM ATP, 90 min, room temperature; read-out: PIM1 LC3K (KI). The procedure, abridged:
(§1)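 Read-out is microfluidic electrophoretic separation of phosphorylated from unphosphorylated fluorescent Pim peptide, with Ki calculated from conversion. Reactions ran 90 min at room temperature in HEPES pH 7.2 containing MgCl2, Tween 20 and DTT, ended by EDTA-containing buffer.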

Test [2] deals with BaF3 PIM1 cells. Briefly: In vitro cell proliferation potency assay (Cell Titer Glo), BaF3 PIM1 cells. It is filed as cell-based, murine. As to conditions: read-out: Prolif BaF3_PIM 1 (IC50).
Test [3] deals with PIM2 (Homo sapiens (Human), UniProt Q9P1W9). The test is described as follows: Pim kinase binding activity, Caliper LC3000 microfluidic peptide phosphorylation assay, PIM2. The format is biochemical. To be noted: 10 μM ATP, 90 min, room temperature; read-out: PIM2 LC3K (KI). The procedure, abridged:
as §1

The test system of test [4] is MM1.S (multiple myeloma) cells. Briefly: In vitro cell proliferation potency assay (Cell Titer Glo), MM1.S cells. The format is cell-based. As to conditions: read-out: Prolif MM1S ATP (EC50). How it is done:
BaF3 parental line was obtained from the DSMZ repository. BaF3 lines transfected with PIM1 or PIM2 were generated. Mouse IL-3 was purchased from R&D Systems. G418 was purchased from Clontech. Media for BaF3 parental line contained RPMI, 10% FBS, 2 mM L-Glutamine, 2 ng/mL mIL-3. Media for BaF3 PIM1 & 2 lines contained RPMI, 10% FBS, 2 mM L-Glutamine, […]. Media for MM1.S (multiple myeloma cells) line contained RPMI, 10% FBS, 2 mM L-Glutamine.
BaF3, a murine interleukin-3 dependent pro-B cell line, parental cells, BaF3 PIM1 cells, BaF3 PIM2 cells, and MM1.S (multiple myeloma) cells were seeded at 2 k/well, 5 k/well, 5 k/well, and 10 k/well respectively, in a 384-well plate, at 45 μL/well. Test compound was added at 5 μL/well. BaF3 cells (parental and transfected) were incubated overnight, while MM1.S cells were incubated for 72 hours at 37° C., 5% CO2. CELL TITER GLO® Reagent (Promega) was added at 50 μL/well, the plates were incubated for 30 minutes, and their luminescence read on an HT Analyst. IC50/EC50 values for the test compound were calculated.
For orientation: ATP-based viability assays read luminescence as a measure of living cells.

Test [5] addresses PIM3 (Homo sapiens (Human), UniProt Q86V86). The test is described as follows: Pim kinase binding activity, Caliper LC3000 microfluidic peptide phosphorylation assay, PIM3. It is filed as biochemical. As to conditions: 10 μM ATP, 90 min, room temperature; read-out: PIM3 LC3K (KI). The essentials:
as §1

Where [6] appears, read: BaF3 cells transfected with PIM1, incubated overnight.
Where [7] appears, read: Homo sapiens, MM1.S cells, 72 hours.
Where [8] appears, read: Mus musculus, BaF3, BaF3 cells transfected with PIM1, incubated overnight.
Setting [9] is: Homo sapiens, MM1.S, 72 h, MM1.S cells, 72 hours.

Experimental findings from patent US9434725B2, “5-azaindazole compounds and methods of use” (priority 2012, dated 2016) are described below.

Where two headings read alike, the source gives them in different places.

Broadly, the Ki is the equilibrium dissociation constant of an inhibitor or competing ligand from its target. Usually IC50 stands for the concentration that gives 50% inhibition. By EC50 is commonly meant the concentration at which the effect is half-maximal.

Sequence of PIM2 (Q9P1W9 whole entry): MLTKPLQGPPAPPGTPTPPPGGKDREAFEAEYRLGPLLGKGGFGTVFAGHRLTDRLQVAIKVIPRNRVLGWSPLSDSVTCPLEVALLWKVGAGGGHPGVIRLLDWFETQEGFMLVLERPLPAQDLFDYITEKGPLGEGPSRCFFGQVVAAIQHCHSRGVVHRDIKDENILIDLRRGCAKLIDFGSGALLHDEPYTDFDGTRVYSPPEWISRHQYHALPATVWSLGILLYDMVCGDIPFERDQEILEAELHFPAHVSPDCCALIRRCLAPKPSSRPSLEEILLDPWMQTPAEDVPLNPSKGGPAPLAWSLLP
Sequence of PIM1 (P11309 whole entry): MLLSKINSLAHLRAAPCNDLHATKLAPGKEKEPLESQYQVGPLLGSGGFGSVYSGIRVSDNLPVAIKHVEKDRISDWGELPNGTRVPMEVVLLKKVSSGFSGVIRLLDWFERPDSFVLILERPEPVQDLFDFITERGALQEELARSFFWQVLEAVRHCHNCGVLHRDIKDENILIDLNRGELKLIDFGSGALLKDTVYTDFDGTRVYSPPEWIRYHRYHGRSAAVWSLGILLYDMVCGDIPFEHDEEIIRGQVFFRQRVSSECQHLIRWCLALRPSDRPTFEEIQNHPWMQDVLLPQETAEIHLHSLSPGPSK

`Cc1cncc(-c2cc3c(cn2)cnn3-c2cccc(N3CCNC(C)C3)n2)n1` (single isomer, unassigned) [Compound 185, 1-[6-(3-methylpiperazin-1-yl)-2-pyridyl]-6-(6-methylpyrazin-2-yl)pyrazolo[4,3-c]pyridine]: the Ki was 0.06 nM in test [1], 0.54 nM in test [3] and 0.022 nM in test [5]. Moreover, in test [2] (setting [6]), the IC50 came to 400 nM. Besides, the EC50 in test [4] (setting [7]) was found to be 4800 nM.

Consider `Cc1ccc(-n2ncc3cnc(-c4cnn(CC(F)(F)F)c4)cc32)nc1N1CCNC[C@@H](O)C1` (single isomer, unassigned) [Compound 260], for which the Ki came to 0.047 nM in test [1], 1.54 nM in test [3] and 0.127 nM in test [5]. Besides, in test [2] (setting [8]), the IC50 was 380 nM. The EC50 in test [4] (Homo sapiens, MM1.S, 72 h) is 852 nM.

With `Cc1cncc(-c2cc3c(cn2)cnn3-c2cccc(C3CNCCC3(F)F)n2)n1` (single isomer, unassigned) [Compound 271], the Ki is 0.189 nM in test [1] and 2.45 nM in test [3]. For the same molecule, the IC50 in test [2] (setting [6]) came to 1400 nM. The EC50 in test [4] (MM1.S cells, 72 hours) was determined as 4900 nM.

As for `Cc1cncc(-c2cc3c(cn2)cnn3-c2cccc(C3CNCCC3(F)F)n2)n1` (single isomer, unassigned) [Compound 272], the Ki in test [1] came out at 0.067 nM; in test [3] it was 0.234 nM. Moreover, the IC50 in test [2] (setting [6]) came out at 194 nM. Moreover, the EC50 in test [4] (MM1.S cells, 72 hours) was 1200 nM.

Consider `Cc1cncc(-c2cc3c(cn2)cnn3-c2cccc(N3CCNCC3)n2)n1` [Compound 123, 6-(6-methylpyrazin-2-yl)-1-(6-(piperazin-1-yl)pyridin-2-yl)-1H-pyrazolo[4,3-c]pyridine], for which the Ki in test [1] worked out at 0.095 nM; in test [3] it was 0.893 nM; in test [5], 0.0498 nM. Also, in test [2] (setting [8]), the IC50 worked out at 284 nM. For the same molecule, the EC50 in test [4] (setting [9]) worked out at 3900 nM.

In the case of `CC(C)n1cc(-c2cc3c(cn2)cnn3-c2cccc(N3CCCNCC3)n2)cn1` [Compound 146, 1-(6-(1,4-Diazepan-1-yl)pyridin-2-yl)-6-(1-isopropyl-1H-pyrazol-4-yl)-1H-pyrazolo[4,3-c]pyridine], the Ki in test [1] was determined as 0.532 nM; in test [3] it was 7.81 nM; in test [5], 0.656 nM. Further, in test [2] (setting [8]), the IC50 was found to be 797 nM. Moreover, in test [4] (setting [7]), the EC50 was 4300 nM.

As for `c1cc(N2CCCNCC2)nc(-n2ncc3cnc(-c4cnn(C5CCC5)c4)cc32)c1` [Compound 147, 1-(6-(1,4-Diazepan-1-yl)pyridin-2-yl)-6-(1-cyclobutyl-1H-pyrazol-4-yl)-1H-pyrazolo[4,3-c]pyridine], the values for the Ki in test [1], in test [3] and in test [5] were 0.213 nM, 3.92 nM and 0.259 nM, respectively. The IC50 in test [2] (setting [8]) was determined as 869 nM. Besides, the EC50 in test [4] (setting [7]) is 2700 nM.

Regarding `CCc1cncc(-c2cc3c(cn2)cnn3-c2cccc(N3CCNCC3)n2)n1` [Compound 149, 6-(6-ethylpyrazin-2-yl)-1-(6-piperazin-1-yl-2-pyridyl)pyrazolo[4,3-c]pyridine], the Ki in test [1] came out at 0.058 nM; in test [3], 0.678 nM; in test [5] it was 0.048 nM. In test [2] (setting [8]), the IC50 was 240 nM. The EC50 in test [4] (setting [9]) is 4700 nM.

`CS(=O)(=O)CCn1cc(-c2cc3c(cn2)cnn3-c2cccc(N3CCCNCC3)n2)cn1` [Compound 157, 1-(6-(1,4-Diazepan-1-yl)pyridin-2-yl)-6-(1-(2-(methylsulfonyl)ethyl)-1H-pyrazol-4-yl)-1H-pyrazolo[4,3-c]pyridine]: the Ki was 0.087 nM in test [1], 6.2 nM in test [3] and 0.055 nM in test [5]. The IC50 in test [2] (setting [8]) came out at 2800 nM. In addition, the EC50 in test [4] (setting [9]) came out at 4000 nM.

As for `c1cc(N2CCCNCC2)nc(-n2ncc3cnc(-c4cnn(C5CC5)c4)cc32)c1` [Compound 174, 1-(6-(1,4-Diazepan-1-yl)pyridin-2-yl)-6-(1-cyclopropyl-1H-pyrazol-4-yl)-1H-pyrazolo[4,3-c]pyridine], the Ki in test [1] was 0.069 nM; in test [3], 0.978 nM; in test [5], 0.079 nM. For the same molecule, in test [2] (setting [8]), the 50% inhibitory concentration (IC50) was 271 nM. Also, the EC50 in test [4] (setting [7]) worked out at 3100 nM.

Take `COc1ccc(-n2ncc3cnc(-c4cncc(C)n4)cc32)nc1N1CCC[C@H](N)C1` [Compound 186, (S)-1-(3-methoxy-6-(6-(6-methylpyrazin-2-yl)-1H-pyrazolo[4,3-c]pyridin-1-yl)pyridin-2-yl)piperidin-3-amine]: the inhibition constant (Ki) in test [1] stood at 0.0212 nM; in test [3], 0.134 nM; in test [5] it was 0.013 nM. The IC50 in test [2] (setting [8]) was determined as 220 nM. Further, the EC50 in test [4] (setting [7]) was found to be 508 nM.

`Cn1cc(-c2cc3c(cn2)cnn3-c2cccc(N3CCNC[C@H](O)C3)n2)cn1` [Compound 231, (S)-1-(6-(6-(1-Methyl-1H-pyrazol-4-yl)-1H-pyrazolo[4,3-c]pyridin-1-yl)pyridin-2-yl)-1,4-diazepan-6-ol]: the Ki was 0.078 nM in test [1], 1.39 nM in test [3] and 0.032 nM in test [5]. For the same molecule, the EC50 in test [4] (setting [9]) was determined as 2200 nM.

As to `Nc1cncc(-c2cc3c(cn2)cnn3-c2cccc(N3CCCNCC3)n2)n1` [Compound 247, 6-(1-(6-(1,4-diazepan-1-yl)pyridin-2-yl)-1H-pyrazolo[4,3-c]pyridin-6-yl)pyrazin-2-amine], the values for the Ki in test [1], in test [3] and in test [5] were 0.023 nM, 0.664 nM and 0.026 nM, respectively. The EC50 in test [4] (setting [7]) came to 2500 nM.

`CCNc1cncc(-c2cc3c(cn2)cnn3-c2cccc(N3CCNCC3)n2)n1` [Compound 285, N-ethyl-6-(1-(6-(piperazin-1-yl)pyridin-2-yl)-1H-pyrazolo[4,3-c]pyridin-6-yl)pyrazin-2-amine]: the Ki in test [1] is 0.044 nM; in test [3] it was 2.28 nM. In addition, the 50% inhibitory concentration (IC50) in test [2] (setting [8]) turned out to be 112 nM. Also, the EC50 in test [4] (setting [9]) was determined as 6400 nM.

In the case of `Cc1cncc(-c2cc3c(cn2)cnn3-c2cccc(N3CCCC4(CN(C=O)C4)C3)n2)n1` [Compound 291, 6-(6-(6-(6-methylpyrazin-2-yl)-1H-pyrazolo[4,3-c]pyridin-1-yl)pyridin-2-yl)-2,6-diazaspiro[3.5]nonane-2-carbaldehyde], the results for the Ki in test [1], in test [3] and in test [5] were 4.41 nM, 40.9 nM and 3.42 nM, respectively. Also, the EC50 in test [4] (Homo sapiens, MM1.S, 72 h) is > 25000 nM.

For `Cc1cncc(-c2cc3c(cn2)cnn3-c2ccc3c(n2)CC(CN)CO3)n1` (stereo not drawn) [Compound 292, (6-(6-(6-methylpyrazin-2-yl)-1H-pyrazolo[4,3-c]pyridin-1-yl)-3,4-dihydro-2H-pyrano[3,2-b]pyridin-3-yl)methanamine], the Ki came out at 1.6 nM in test [1], 19.4 nM in test [3] and 0.796 nM in test [5]. Also, in test [4] (setting [7]), the EC50 is 11700 nM.

With `Cc1cncc(-c2cc3c(cn2)cnn3-c2cccc(C3(F)CCCNC3)n2)n1` (stereo not drawn) [Compound 294, 1-(6-(3-fluoropiperidin-3-yl)pyridin-2-yl)-6-(6-methylpyrazin-2-yl)-1H-pyrazolo[4,3-c]pyridine], the Ki in test [1] was determined as 0.514 nM; in test [3], 2.37 nM. Moreover, the IC50 in test [2] (setting [8]) was 772 nM. Besides, the EC50 in test [4] (setting [9]) stood at 9300 nM.

`Cc1cncc(-c2cc3c(cn2)cnn3-c2cccc(OC3CCCC(N)C3)n2)n1` (stereo not drawn) [Compound 311, 3-(6-(6-(6-methylpyrazin-2-yl)-1H-pyrazolo[4,3-c]pyridin-1-yl)pyridin-2-yloxy)cyclohexanamine]: the Ki worked out at 0.069 nM in test [1] and 0.036 nM in test [5]. Also, in test [2] (setting [8]), the IC50 came to 1000 nM. The EC50 in test [4] (setting [9]) was 5500 nM.

Turning to `Cc1cncc(-c2cc3c(cnn3-c3cccc(N4CCNCC4)n3)nn2)n1` [Compound 313, 6-(6-methylpyrazin-2-yl)-1-(6-(piperazin-1-yl)pyridin-2-yl)-1H-pyrazolo[4,3-c]pyridazine], the Ki in test [3] was 0.71 nM; in test [5] it was 0.05 nM. The EC50 in test [4] (setting [9]) was determined as 7100 nM.

For `CC#Cc1cncc(-c2cc3c(cn2)cnn3-c2cccc(N3CCNCC3)n2)n1` [Compound 317, 1-(6-(piperazin-1-yl)pyridin-2-yl)-6-(6-(prop-1-ynyl)pyrazin-2-yl)-1H-pyrazolo[4,3-c]pyridine], the Ki in test [3] is 1.71 nM; in test [5] it was 0.026 nM. The EC50 in test [4] (setting [9]) amounted to 2700 nM.
